# Data reported in US7595334B2, “Broadspectrum 2-(substituted-amino)-benzoxazole sulfonamide HIV protease inhibitors” (Tibotec Pharmaceuticals Ltd., priority 2001, dated 2009).
# Tests used:
# [1] = test system: HIV strain D (clinically isolated, protease mutations); type: cell-based; details: FR=EC50(mutant strain D)/EC50(HIV-1 strain LAI)
# Procedure: (§1) HIV- or mock-infected MT4 cells were incubated for five days in the presence of various concentrations of the inhibitor. […] Cell viability is measured by measuring the concentration of MTT, a yellow, water soluble tetrazolium dye that is converted to a purple, water insoluble formazan in the mitochondria of living cells only. Upon solubilization of the resulting formazan crystals with isopropanol, the absorbance of the solution is monitored at 540 nm. The values correlate directly to the number of living cells remaining in the culture at the completion of the five day incubation. The inhibitory activity of the compound was monitored on the virus-infected cells and was expressed as EC50 and EC90. These values represent the amount of the compound required to protect 50% and 90%, respectively, of the cells from the cytopathogenic effect of the virus. The toxicity of the compound was measured on the mock-infected cells and was expressed as CC50, which represents the concentration of compound required to inhibit the growth of the cells by 50%. The selectivity index (SI) (ratio CC50/EC50) is an indication of the selectivity of the anti-HIV activity of the inhibitor. Wherever results are reported as e.g. pEC50 or pCC50 values, the result is expressed as the negative logarithm of the result expressed as EC50 or CC50 respectively.
# (§2) As a measure of the broad spectrum activity of the present compounds, the fold resistance (FR), defined as FR=EC50(mutant strain)/EC50(HIV-1 strain LAI), was determined.
# [2] = test system: HIV strain A (clinically isolated, protease mutations); type: cell-based; details: FR=EC50(mutant strain A)/EC50(HIV-1 strain LAI)
# Procedure: as §1, §2
# [3] = test system: HIV strain C (clinically isolated, protease mutations); type: cell-based; details: FR=EC50(mutant strain C)/EC50(HIV-1 strain LAI)
# Procedure: as §1, §2
# [4] = test system: HIV strain E (clinically isolated, protease mutations); type: cell-based; details: FR=EC50(mutant strain E)/EC50(HIV-1 strain LAI)
# Procedure: as §1, §2
# [5] = test system: HIV strain F (clinically isolated, protease mutations); type: cell-based; details: FR=EC50(mutant strain F)/EC50(HIV-1 strain LAI)
# Procedure: as §1, §2
# [6] = test system: HIV strain B (clinically isolated, protease mutations); type: cell-based; details: FR=EC50(mutant strain B)/EC50(HIV-1 strain LAI)
# Procedure: as §1, §2
# mock-infected MT4 cells = experiment: in vitro
# Procedure: as §1, §2
SMILES,D (FR) fold resistance [1],A (FR) fold resistance [2],C (FR) fold resistance [3],E (FR) fold resistance [4],F (FR) fold resistance [5],B (FR) fold resistance [6],Tox (pCC50) (mock-infected MT4 cells)
CC(C)CN(C[C@@H](O)[C@H](Cc1ccccc1)NC(=O)OCc1cncs1)S(=O)(=O)c1ccc2nc(NC(=O)c3ccccn3)oc2c1 [Compound 16],3.3,3.5,0.69,1.1,17,0.72,4.25
CC(C)CN(C[C@@H](O)[C@H](Cc1ccccc1)NC(=O)OCc1cncs1)S(=O)(=O)c1ccc2nc(NC(=O)CN(C)CCN3CCCC3)oc2c1 [Compound 24],1.6,1.9,1.3,1.4,6.8,0.53,<4
CC(C)CN(C[C@@H](O)[C@H](Cc1ccccc1)NC(=O)OCc1cncs1)S(=O)(=O)c1ccc2nc(N(C)C(=O)c3ccnc(Cl)c3)oc2c1 [Compound 29],4.9,8.1,0.79,0.87,39,1.4,<4
CC(C)CN(C[C@@H](O)[C@H](Cc1ccccc1)NC(=O)OCc1cncs1)S(=O)(=O)c1ccc2nc(NC(=O)C3CCC(=O)N3)oc2c1 (some centres unmarked) [Compound 13],0.91,2.3,0.64,0.91,5.2,0.75,<4
CC(=O)Nc1nc2ccc(S(=O)(=O)N(CC(C)C)C[C@@H](O)[C@H](Cc3ccccc3)NC(=O)OCc3cncs3)cc2o1 [Compound 11],10,42,2.5,4.8,74,2.1,<4
CC(C)CN(C[C@@H](O)[C@H](Cc1ccccc1)NC(=O)OCc1cncs1)S(=O)(=O)c1ccc2nc(NC(=O)c3ccco3)oc2c1 [Compound 14],3.7,5.2,3.1,3.1,19,3.8,5.03
CC(C)CN(C[C@@H](O)[C@H](Cc1ccccc1)NC(=O)OCc1cncs1)S(=O)(=O)c1ccc2nc(N(C)C(=O)c3cccnc3)oc2c1 [Compound 32],8.1,8.3,1.1,,42,1.7,<4
CCOC(=O)Nc1nc2ccc(S(=O)(=O)N(CC(C)C)C[C@@H](O)[C@H](Cc3ccccc3)NC(=O)OCc3cncs3)cc2o1 [Compound 12],4.8,8.5,2.5,2.5,15,1.4,<4
CC(C)CN(C[C@@H](O)[C@H](Cc1ccccc1)NC(=O)OCc1cncs1)S(=O)(=O)c1ccc2nc(N(C)C(=O)C3CCC(=O)N3)oc2c1 (some centres unmarked) [Compound 30],,,,,,,<4
CC(C)CN(C[C@@H](O)[C@H](Cc1ccccc1)NC(=O)OCc1cncs1)S(=O)(=O)c1ccc2nc(NC(=O)C3CCN(C)CC3)oc2c1 [Compound 15],1.7,2.3,1.1,1.5,7.8,0.81,<4
CC(C)CN(C[C@@H](O)[C@H](Cc1ccccc1)NC(=O)O[C@H]1CO[C@H]2OCC[C@H]21)S(=O)(=O)c1ccc2nc(NCCN(C)C)oc2c1 [Compound 2],0.32,1.1,0.59,0.36,2.7,0.49,<4
CC(C)CN(C[C@@H](O)[C@H](Cc1ccccc1)NC(=O)OCc1cncs1)S(=O)(=O)c1ccc2nc(NC(=O)c3cccnc3)oc2c1 [Compound 18],3.0,2.6,1.5,2.6,13,0.85,4.24
CC(C)CN(C[C@@H](O)[C@H](Cc1ccccc1)NC(=O)OCc1cncs1)S(=O)(=O)c1ccc2nc(N(C)C(=O)c3ccccn3)oc2c1 [Compound 26],15,9.3,3.4,11,59,2.45,4.14
CC(C)CN(C[C@@H](O)[C@H](Cc1ccccc1)NC(=O)OCc1cncs1)S(=O)(=O)c1ccc2nc(NC(=O)CN(C)C)oc2c1 [Compound 19],2.2,3.0,0.91,,17,0.81,<4
CC(C)CN(C[C@@H](O)[C@H](Cc1ccccc1)NC(=O)OCc1cncs1)S(=O)(=O)c1ccc2nc(N(C)C(=O)c3ccncc3)oc2c1 [Compound 31],7.6,9.5,1.25,,33,1.3,<4
CC(C)CN(C[C@@H](O)[C@H](Cc1ccccc1)NC(=O)OCc1cncs1)S(=O)(=O)c1ccc2nc(NC(=O)C3CCCN3C)oc2c1 (some centres unmarked) [Compound 34],5.8,7.2,1.7,2.3,25,1.4,4.25
CC(C)CN(C[C@@H](O)[C@H](Cc1ccccc1)NC(=O)OCc1cncs1)S(=O)(=O)c1ccc2nc(N(C)C(=O)C3CCN(C)CC3)oc2c1 [Compound 28],2.9,4.4,0.51,1.9,23,0.89,<4
COC(=O)Nc1nc2ccc(S(=O)(=O)N(CC(C)C)C[C@@H](O)[C@H](Cc3ccccc3)NC(=O)OCc3cncs3)cc2o1 [Compound 9],2.7,3.5,1.2,3.6,14.5,1.2,<4
CC(C)CN(C[C@@H](O)[C@H](Cc1ccccc1)NC(=O)OCc1cncs1)S(=O)(=O)c1ccc2nc(NC(=O)CN3CCN(C)CC3)oc2c1 [Compound 25],3.9,3.9,3.0,3.9,18,1.3,4.31
CC(C)CN(C[C@@H](O)[C@H](Cc1ccccc1)NC(=O)O[C@H]1CO[C@H]2OCC[C@H]21)S(=O)(=O)c1ccc2nc(N(C)CCN3CCCC3)oc2c1 [Compound 8],5.8,30,1.7,,58,5.8,<4
CC(C)CN(C[C@@H](O)[C@H](Cc1ccccc1)NC(=O)OCc1cncs1)S(=O)(=O)c1ccc2nc(NC(=O)[C@H]3CCCN3C)oc2c1 [Compound 35],3.5,13,1.1,,48,2.3,4.26
CC(C)CN(C[C@@H](O)[C@H](Cc1ccccc1)NC(=O)OCc1cncs1)S(=O)(=O)c1ccc2nc(N(C)C(=O)C3CCCN(C)C3)oc2c1 (some centres unmarked) [Compound 27],2.9,4.4,0.68,0.85,24,1.00,<4
